Legend:
[1] = J. Med. Chem., vol. 17, 922 (1974); among acridines with the 9-position alkylamino group replaced; cited from earlier work
KB cells = test: Test for inhibiting multiplication/growth of KB cells (in vitro); assay type: cell-based, Human; settings: compound added Day 1, cells counted Day 4, 37° C., 5% CO2, 50% inhibition rate, 4320 min
Protocol: 1) Function for Inhibiting Multiplication of KB-1 Cell (in vitro test)
KB cells, carcinomatous cell tumors, were transferred to in vitro floatation incubator systems, and added respectively with the Compounds (1), (2) and (3). The results of cultivation added with the Compounds (1), (2) and (3) were compared with the result of the control which was not added with any compound.
Cell used: KB Cell (Originating from Human Mouth Epidermal Cancer),
Culture medium: Eagles Minimal Essential Medium supplemented with 10% Calf Serum,
Cultivation: 37° C. Carbon dioxide Gas incubator (5% CO2).
KB cells were diluted in the culture medium to adjust the KB cell density to 2 x 10^4 /ml.
Three ml of the cell suspension was inoculated in each of 60 mm plastic dishes.
Two dishes per standard dosage were used.
Test compound was added to the medium so that the final concentrations were set to 100, 30, 10, 3 and 1 μg/ml.
Cells were scraped off from the dish using trypsin, and the cell number was countered using a Corter counter.
In general accordance with the stipulations set forth by the National Cancer Institute (NCI), U.S.A., the concentration of compound necessary for exerting 50% growth inhibition (ED50) compared to the control was determined.

P-388 = test: Prolongation of life span in P-388 cancer implanted mouse (in vivo); parameters: species or system CDF Mouse; settings: Day 1 and Day 5, P-388 inoculated i.p., 10^6 cells/mouse
Protocol: Effect on Prolongation of Life Span in Cancer implanted Mouse and Acute Toxicity
Pharmacological effects of the compounds as used in Test Example 1 were tested in vivo using P-388 implanted mice.
Animal Used: CDF Mouse (6 mice/group),
Number of Inowlated Cells: 10^6 cells/mouse,
Day of Administration: Day 1 and Day 5,
Dosage: LD50 or 400 mg/kg/day at the maximum.
The treatment was judged as effective when the ratio of survival of the treated group to that of the control group (T/C %) was 120% or more. The survival period of the control group was generally about 10 days.

SMILES | ED50: concentration of compound necessary for exerting 50% growth inhibition compared to the control (Concentration at Inhibition Rate 50%) (KB cells) [µg/mL] | Ratio of Life Prolongation (T/C %) (P-388; 100 mg/kg) [%] | Ratio of Life Prolongation (T/C %) (P-388; 200 mg/kg) [%] | further results
COc1cc(NS(C)(=O)=O)ccc1Nc1c2ccccc2nc2ccccc12 [Amsacrine, N-(4-(9-acridylamino)-3-methoxyphenyl)methanesulfonamide] |  |  |  | carcinostatic function [1]: highest carcinostatiac function
COc1cc(NS(C)(=O)=O)ccc1Nc1c2ccccc2nc2c1[nH]c1ccccc12 [Compound 1] | 0.3 |  |  | Ratio of Life Prolongation (T/C %) (P-388; 6.25 mg/kg): 300%; Ratio of Life Prolongation (T/C %) (P-388; 12.5 mg/kg): 203%; Ratio of Life Prolongation (T/C %) (P-388; 25 mg/kg): 111%
COc1cc(NS(C)(=O)=O)ccc1Nc1c2ccccc2nc2cc3ccccc3cc12 [Compound 2, N-(4-((benzo(b)acridine-12yl)amino)-3-methoxyphenyl)methanesulfonamide] | 1.15 | 122 | 130 | Ratio of Life Prolongation (T/C %) (P-388; 400 mg/kg): 130%
COc1cc(NS(C)(=O)=O)ccc1Nc1c2ccccc2nc2c1ccc1ccccc12 [Compound 3] |  | 163 | 204 | Ratio of Life Prolongation (T/C %) (P-388; 50 mg/kg): 157%
